Reference: US20100249408A1, “USE OF NOVEL COMPOUND HAVING AFFINITY FOR AMYLOID, AND PROCESS FOR PRODUCTION OF THE SAME” (NIHON MEDI-PHYSICS CO., LTD., priority 2007, published 2010)
Like-named read-outs stand apart in the source and are kept apart here.

Assays:
[1] = molecular target: intracerebral amyloid (aggregated Aβ1-40 injected into amygdaloid nucleus) (Homo sapiens, UniProt P05067); conditions: rat with Aβ1-40 amyloid suspension in one amygdaloid nucleus, tail vein, brain removed 60 minutes after injection
Experimental: The following experiment was carried out in order to examine whether amyloid in brain can be imaged by the compound of the present invention.
The rats were examined 1 day after the injection of the amyloid suspension and the phosphate buffered physiological saline solution (pH 7.4).
(4) Brain was removed 60 minutes after the injection to prepare a brain slice of 10 μm in thickness with a microtome (type: CM3050S, manufactured by LEICA).

[2] = SD rat; for Radioactive distribution per unit weight, Adrenal gland, Average / Radioactive distribution per unit weight, Blood, Average / Radioactive distribution per unit weight, Bone, Average / Radioactive distribution per unit weight, Brain, Average / Radioactive distribution per unit weight, Heart, Average / Radioactive distribution per unit weight, Kidney, Average / Radioactive distribution per unit weight, Large intestine, Average / Radioactive distribution per unit weight, Liver, Average / Radioactive distribution per unit weight, Lung, Average / Radioactive distribution per unit weight, Marrow, Average / Radioactive distribution per unit weight, Muscle, Average / Radioactive distribution per unit weight, Pancreas, Average / Radioactive distribution per unit weight, Small intestine, Average / Radioactive distribution per unit weight, Spleen, Average / Radioactive distribution per unit weight, Stomach, Average: tail vein
Experimental: A solution of Compound 6 in diethylether was diluted with a 10 mg/mL ascorbic acid-containing physiological saline solution and adjusted to 8-12 MBq/mL in radioactive concentration. 0.2 mL each of the prepared sample solution was administered under non-anesthesia into the tail vein of the above rat. The rats were sacrificed by bleeding from abdominal artery, and each organ shown in Table 11 was removed 5, 30, 60 and 180 minutes after the administration. […] Also, radioactivity of the whole body of the rat after removal of the organs (hereinafter referred to as rest of the whole body) was measured. Using these measurement results, radioactive distribution per unit weight of each organ (% ID/g) at the respective time points was calculated in accordance with the following formula (6).
Three animals were used for the experiment at the respective time points.
[formula] • R^T: Radioactivity of target organ (cpm) • R^S: Sum of radioactivity of all the organs (cpm) • R^R: Radioactivity of the rest of the whole body (cpm) • M^T: Mass of target organ (g)

[3] = Transferability into brain and clearance (Example I-16, Comparative Example I-7); format: in vivo, male Wistar rats; conditions: rats, intravenous injection, two animals
Experimental: Using Compound 6, a time course change of radioactive accumulation in brain of male Wistar rats (7-week old) was measured.
Also, radioactivity (hereinafter referred to as B in this Example) of 0.05 mL of a 1000-fold diluted solution of the injected solution was measured in the same manner as above. Using these measurement results, radioactive accumulation per unit weight of brain (% ID/g) at the respective time points was calculated in accordance with the following formula (3).

insulin amyloid = insulin amyloid (Homo sapiens, UniProt P01308); conditions: insulin amyloid 0.8 μg/mL, compound 0.2-20.2 pM, 22° C., 3 hours (FIG. 16)
Text: (§1) Affinity of the present compounds with amyloid was examined by the following in vitro binding tests.

amylin amyloid = amylin amyloid (Homo sapiens, UniProt P10997); conditions: amylin amyloid 0.8 μg/mL, compound 0.2-20.2 pM, 22° C., 3 hours (FIG. 16)
Text: as §1

[4] = molecular target: β2-m-amyloid (aggregated β2-microglobulin) (Homo sapiens, UniProt P61769); conditions: β2-m-amyloid 0.8 μg/mL, compound 0.2-20.2 pM, 22° C., 3 hours (FIG. 16)
Text: as §1

Chain of intracerebral amyloid (aggregated Aβ1-40 injected into amygdaloid nucleus) (P05067 672-711): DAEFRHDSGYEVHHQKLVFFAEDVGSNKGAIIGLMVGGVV
Chain of insulin amyloid (P01308 25-54 limits assumed): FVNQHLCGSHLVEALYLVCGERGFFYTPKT
Chain of insulin amyloid (P01308 90-110 limits assumed): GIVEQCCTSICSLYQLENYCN
Chain of amylin amyloid (P10997 34-70 limits assumed): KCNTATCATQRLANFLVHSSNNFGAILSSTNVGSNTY

- Accumulation of radioactivity at intracerebral amyloid (autoradiogram) [1]: accumulating on intracerebral amyloid
- Ratio (% ID/g at 5 minutes after the administration)/(% ID/g at 180 minutes after the administration) ([2]; bone): 4
- Ratio (% ID/g at 5 minutes after the administration)/(% ID/g at 180 minutes after the administration) ([2]; brain): 122
- Ratio (% ID/g at 5 minutes after the administration)/(% ID/g at 180 minutes after the administration) ([2]; heart): 13
- Ratio (% ID/g at 5 minutes after the administration)/(% ID/g at 180 minutes after the administration) ([2]; lung): 7
- Ratio (% ID/g at 5 minutes after the administration)/(% ID/g at 180 minutes after the administration) ([2]; pancreas): 14
- Radioactive distribution per unit weight, Adrenal gland, Average ([2]; 5 min. after administration): 4.648 % ID/g
- Radioactive distribution per unit weight, Adrenal gland, Average ([2]; 30 min. after administration): 0.642 % ID/g
- Radioactive distribution per unit weight, Adrenal gland, Average ([2]; 60 min. after administration): 0.260 % ID/g
- Radioactive distribution per unit weight, Adrenal gland, Average ([2]; 180 min. after administration): 0.020 % ID/g
- Radioactive distribution per unit weight, Blood, Average ([2]; 5 min. after administration): 0.285 % ID/g
- Radioactive distribution per unit weight, Blood, Average ([2]; 30 min. after administration): 0.174 % ID/g
- Radioactive distribution per unit weight, Blood, Average ([2]; 60 min. after administration): 0.122 % ID/g
- Radioactive distribution per unit weight, Blood, Average ([2]; 180 min. after administration): 0.109 % ID/g
- Radioactive distribution per unit weight, Bone, Average ([2]; 5 min. after administration): 0.222 % ID/g
- Radioactive distribution per unit weight, Bone, Average ([2]; 30 min. after administration): 0.088 % ID/g
- Radioactive distribution per unit weight, Bone, Average ([2]; 60 min. after administration): 0.058 % ID/g
- Radioactive distribution per unit weight, Bone, Average ([2]; 180 min. after administration): 0.053 % ID/g
- Radioactive distribution per unit weight, Brain, Average ([2]; 5 min. after administration): 0.721 % ID/g
- Radioactive distribution per unit weight, Brain, Average ([2]; 30 min. after administration): 0.124 % ID/g
- Radioactive distribution per unit weight, Brain, Average ([2]; 60 min. after administration): 0.030 % ID/g
- Radioactive distribution per unit weight, Brain, Average ([2]; 180 min. after administration): 0.006 % ID/g
- Radioactive distribution per unit weight, Heart, Average ([2]; 5 min. after administration): 0.619 % ID/g
- Radioactive distribution per unit weight, Heart, Average ([2]; 30 min. after administration): 0.147 % ID/g
- Radioactive distribution per unit weight, Heart, Average ([2]; 60 min. after administration): 0.063 % ID/g
- Radioactive distribution per unit weight, Heart, Average ([2]; 180 min. after administration): 0.047 % ID/g
- Radioactive distribution per unit weight, Kidney, Average ([2]; 5 min. after administration): 0.999 % ID/g
- Radioactive distribution per unit weight, Kidney, Average ([2]; 30 min. after administration): 0.540 % ID/g
- Radioactive distribution per unit weight, Kidney, Average ([2]; 60 min. after administration): 0.244 % ID/g
- Radioactive distribution per unit weight, Kidney, Average ([2]; 180 min. after administration): 0.108 % ID/g
- Radioactive distribution per unit weight, Large intestine, Average ([2]; 5 min. after administration): 0.116 % ID/g
- Radioactive distribution per unit weight, Large intestine, Average ([2]; 30 min. after administration): 0.070 % ID/g
- Radioactive distribution per unit weight, Large intestine, Average ([2]; 60 min. after administration): 0.066 % ID/g
- Radioactive distribution per unit weight, Large intestine, Average ([2]; 180 min. after administration): 7.296 % ID/g
- Radioactive distribution per unit weight, Liver, Average ([2]; 5 min. after administration): 2.008 % ID/g
- Radioactive distribution per unit weight, Liver, Average ([2]; 30 min. after administration): 0.509 % ID/g
- Radioactive distribution per unit weight, Liver, Average ([2]; 60 min. after administration): 0.181 % ID/g
- Radioactive distribution per unit weight, Liver, Average ([2]; 180 min. after administration): 0.083 % ID/g
- Radioactive distribution per unit weight, Lung, Average ([2]; 5 min. after administration): 0.657 % ID/g
- Radioactive distribution per unit weight, Lung, Average ([2]; 30 min. after administration): 0.209 % ID/g
- Radioactive distribution per unit weight, Lung, Average ([2]; 60 min. after administration): 0.120 % ID/g
- Radioactive distribution per unit weight, Lung, Average ([2]; 180 min. after administration): 0.089 % ID/g
- Radioactive distribution per unit weight, Marrow, Average ([2]; 5 min. after administration): 0.713 % ID/g
- Radioactive distribution per unit weight, Marrow, Average ([2]; 30 min. after administration): 0.194 % ID/g
- Radioactive distribution per unit weight, Marrow, Average ([2]; 60 min. after administration): 0.000 % ID/g
- Radioactive distribution per unit weight, Marrow, Average ([2]; 180 min. after administration): 0.030 % ID/g
- Radioactive distribution per unit weight, Muscle, Average ([2]; 5 min. after administration): 0.381 % ID/g
- Radioactive distribution per unit weight, Muscle, Average ([2]; 30 min. after administration): 0.078 % ID/g
- Radioactive distribution per unit weight, Muscle, Average ([2]; 60 min. after administration): 0.034 % ID/g
- Radioactive distribution per unit weight, Muscle, Average ([2]; 180 min. after administration): 0.022 % ID/g
- Radioactive distribution per unit weight, Pancreas, Average ([2]; 5 min. after administration): 0.846 % ID/g
- Radioactive distribution per unit weight, Pancreas, Average ([2]; 30 min. after administration): 0.207 % ID/g
- Radioactive distribution per unit weight, Pancreas, Average ([2]; 60 min. after administration): 0.084 % ID/g
- Radioactive distribution per unit weight, Pancreas, Average ([2]; 180 min. after administration): 0.060 % ID/g
- Radioactive distribution per unit weight, Small intestine, Average ([2]; 5 min. after administration): 1.078 % ID/g
- Radioactive distribution per unit weight, Small intestine, Average ([2]; 30 min. after administration): 6.335 % ID/g
- Radioactive distribution per unit weight, Small intestine, Average ([2]; 60 min. after administration): 8.207 % ID/g
- Radioactive distribution per unit weight, Small intestine, Average ([2]; 180 min. after administration): 1.408 % ID/g
- Radioactive distribution per unit weight, Spleen, Average ([2]; 5 min. after administration): 0.462 % ID/g
- Radioactive distribution per unit weight, Spleen, Average ([2]; 30 min. after administration): 0.140 % ID/g
- Radioactive distribution per unit weight, Spleen, Average ([2]; 60 min. after administration): 0.075 % ID/g
- Radioactive distribution per unit weight, Spleen, Average ([2]; 180 min. after administration): 0.072 % ID/g
- Radioactive distribution per unit weight, Stomach, Average ([2]; 5 min. after administration): 0.360 % ID/g
- Radioactive distribution per unit weight, Stomach, Average ([2]; 30 min. after administration): 1.025 % ID/g
- Radioactive distribution per unit weight, Stomach, Average ([2]; 60 min. after administration): 1.043 % ID/g
- Radioactive distribution per unit weight, Stomach, Average ([2]; 180 min. after administration): 1.081 % ID/g
- Radioactive accumulation in brain per unit weight ([3]; after 2 min.): 0.96 % ID/g
- Radioactive accumulation in brain per unit weight ([3]; after 5 min.): 0.69 % ID/g
- Radioactive accumulation in brain per unit weight ([3]; after 30 min.): 0.16 % ID/g
- Radioactive accumulation in brain per unit weight ([3]; after 60 min.): 0.04 % ID/g
SMILES: Oc1ccc(-c2cn3cc([123I])ccc3n2)cc1 [Compound 6, [^123I]-2-(4′-hydroxyphenyl)-6-iodoimidazo[1,2-a]pyridine]
- Radioactive count on glass fiber filter versus group without addition of amyloid (insulin amyloid): radioactivity was all high compared to the group without addition of amyloid suspension
- Radioactive count on glass fiber filter versus group without addition of amyloid (amylin amyloid): radioactivity was all high compared to the group without addition of amyloid suspension
- Radioactive count on glass fiber filter versus group without addition of amyloid [4]: radioactivity was all high compared to the group without addition of amyloid suspension
